The values that follow come from patent publication US20240262795A1, “PYRAZINE COMPOUNDS AS INHIBITORS OF FLT3” (Biomea Fusion, Inc., priority 2021, published 2024).

The subject of one assay is MV-4-11. The experiment in a line: Proliferation inhibition, CellTiter-Glo, MV-4-11. As to conditions: for IC50: Homo sapiens. The assay is classed as cell-based, human. In outline: (§1)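 About 10,000 cells per well in RPMI-1640 with 10% FBS. Compounds added 2 h after seeding at eight concentrations in duplicate (0.2% DMSO as 100% proliferation), then incubated ~96 h at 37° C, 5% CO2. ATP measured by CellTiter-Glo luminescence; IC50 from four-parameter logistic fit.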

Another assay relates to MOLM-13. Nature of the assay: Proliferation inhibition, CellTiter-Glo, MOLM-13. The assay is classed as cell-based, human. As to conditions: for IC50: Homo sapiens, MOLM-13 cells. The gist of the method:
as §1

The target in the next assay is T1, FLT3-ITD (Homo sapiens, UniProt P36888, DUP595-601).
T1 construct: purchased Signalchem F-12-12CG-10
T1 sequence (P36888 with tags, fused parts or gaps DUP595-601 limits assumed): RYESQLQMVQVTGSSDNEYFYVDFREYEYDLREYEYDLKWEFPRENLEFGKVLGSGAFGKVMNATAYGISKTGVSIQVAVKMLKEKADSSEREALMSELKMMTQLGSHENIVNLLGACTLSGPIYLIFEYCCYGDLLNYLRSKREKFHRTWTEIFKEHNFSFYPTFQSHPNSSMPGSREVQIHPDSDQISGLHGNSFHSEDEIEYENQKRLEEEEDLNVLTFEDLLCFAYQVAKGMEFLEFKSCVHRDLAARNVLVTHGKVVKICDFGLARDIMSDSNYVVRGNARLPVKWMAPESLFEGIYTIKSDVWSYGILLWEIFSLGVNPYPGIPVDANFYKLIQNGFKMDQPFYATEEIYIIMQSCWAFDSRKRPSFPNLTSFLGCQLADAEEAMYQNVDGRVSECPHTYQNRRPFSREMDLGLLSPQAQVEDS
The experiment in a line: FLT3-ITD Lance Ultra TR-FRET kinase assay. The assay is classed as biochemical. From the text: (§2) High throughput 384-well Lance Ultra TR-FRET based kinase assays were established for the WT FLT3 and FLT3-ITD enzymes and employed a ULight-labeled peptide […] and FLT3 proteins labelled with Eu-conjugated antibody […] (WuXi Aptec). The principle of TR-FRET is based on transfer of energy between a donor and acceptor fluorophore that results when the fluorophores are within close proximity (˜100 Å) of each other. Recombinant WT FLT3 (#PR4666C, M.W. 48.6 kDa) was purchased from Invitrogen and FLT3-ITD (FLT3-ITD-W51, #F-12-12CG-10, M.W. 76 kDa) was purchased from Signalchem. Optimal assay conditions for the WT FLT3 enzyme assay were as follows: 0.5 nM FLT3 protein, 50 nM ULight-JAK-1 (Tyr1023) substrate peptide (PerkinElmer #TRF0121), 100 μM ATP, 60 min reaction time. Optimal assay conditions for the FLT3-ITD enzyme assay were as follows: 0.0625 nM FLT3-ITD protein, 50 nM ULight-JAK-1 (Tyr1023) substrate peptide, 50 μM ATP, 90 min reaction time. Briefly, 11 dose 3× serial dilutions were prepared for the test compounds and the reference compound and 100 nanoliters transferred to appropriate wells of 384-well assay plates. Five microliters of 2× enzyme/peptide were added into assay wells, assay plates centrifuged at 1000 rpm for about 30 seconds, sealed with sealing film and incubated for 30 min at 23° C. Assay buffer comprised 50 mM HEPES (pH 7.5), 1 mM EDTA, 0.01% Brij-35, 10 mM MgCl2 and 2 mM DTT. Next 5 μl of a 2× ATP mixture were added into the assay wells and the plates centrifuged at 1000 rpm about 30 seconds, sealed with sealing film and incubated for 23° C. for appropriate duration. Following assay incubation (30 min for WT FLT3 and 60 min for FLT3-ITD) 10 μl 2× Detection Mixture (Eu-W1024 Anti-phosphotyrosine (PT66) 2 nM and EDTA 10 mM) was added to assay wells, assay plates centrifuge at 1000 rpm about 1 minutes, sealed with sealing film and incubated at 23° C. for 60 minutes. Assay plates were read on a Perkin Elmer Envision reader at two wavelengths (665/615) and the ratio of […] calculated.
(§3) Data was expressed as % of inhibition relative to the vehicle control and calculated as follows:
(§4) Results were analyzed by XLFIT5 as % inhibition vs. log [compound concentration] and IC50 values were calculated by non-linear regression using four parameter-logistic equation. Fit=(A+((B−A)/(1+((C/x)^D)))). Res=(y−fit).

The target in the next assay is T2, WT FLT3 (Homo sapiens, UniProt P36888).
T2 construct: purchased Invitrogen PR4666C
T2 sequence (P36888 564-993 limits assumed): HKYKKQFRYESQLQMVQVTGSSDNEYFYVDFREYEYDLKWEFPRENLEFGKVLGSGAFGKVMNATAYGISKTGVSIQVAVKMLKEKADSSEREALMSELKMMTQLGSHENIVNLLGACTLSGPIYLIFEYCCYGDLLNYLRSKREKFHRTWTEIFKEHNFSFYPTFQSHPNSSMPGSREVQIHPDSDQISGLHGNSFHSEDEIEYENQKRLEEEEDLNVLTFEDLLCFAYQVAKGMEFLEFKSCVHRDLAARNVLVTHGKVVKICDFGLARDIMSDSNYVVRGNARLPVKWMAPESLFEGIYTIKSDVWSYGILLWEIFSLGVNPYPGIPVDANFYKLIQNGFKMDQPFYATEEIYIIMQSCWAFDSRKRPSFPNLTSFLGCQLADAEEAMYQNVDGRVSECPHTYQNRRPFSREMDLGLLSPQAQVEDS
The experiment in a line: WT FLT3 Lance Ultra TR-FRET kinase assay. Type of assay: biochemical.
From the text: as §2, §3, §4

A further assay concerns K-562. The experiment in a line: Proliferation inhibition, CellTiter-Glo, K-562. Type of assay: cell-based, human. Particulars: for IC50: Homo sapiens. In outline: as §1
Where [1] appears, read: MV4-11, 96 h, MV-4:11 cells, IC50 (4 days), CellTiter-Glo, read-out: MV-4:11 IC50.
Setting [2] is: 96 h, IC50 (4 days), CellTiter-Glo, read-out: MOLM-13 IC50.
Setting [3] is: K562, 96 h, K-562 cells, IC50 (4 days), CellTiter-Glo, read-out: K-562 IC50.

Like-named read-outs stand apart in the source and are kept apart here.

For `C=CC(=O)N(C)CC(=O)NCCc1cccc(Nc2nc(N(C)C(C)C)c(CC)nc2C(N)=O)c1` [Compound 308, 6-ethyl-5-(isopropyl(methyl)amino)-3-((3-(2-(2-(N-methylacrylamido)acetamido)ethyl)phenyl)amino)pyrazine-2-carboxamide], the IC50 in the assay on MV-4-11 (setting [1]) is 1 to 10 nM; in the assay on MOLM-13 (setting [2]), 1 to 10 nM; at FLT3-ITD it was 0.101 to 0.2 nM; at WT FLT3, 0.201 to 0.5 nM; with K-562 (setting [3]) it was over 500 nM.

Turning to `CCc1nc(C(N)=O)c(Nc2cc(CCNC(=O)[C@H](C)N(C)C(=O)/C=C/CN(C)C)cc(OC)c2)nc1C1CC1` [Compound 144, (S,E)-5-cyclopropyl-3-((3-(2-(2-(4-(dimethylamino)-N-methylbut-2-enamido)propanamido)ethyl)-5-methoxyphenyl)amino)-6-ethylpyrazine-2-carboxamide], the IC50 in the assay on MV-4-11 (setting [1]) is under 1 nM; with MOLM-13 (setting [2]) it was under 1 nM; against FLT3-ITD, 0.201 to 0.5 nM; at WT FLT3 it was 0.201 to 0.5 nM; with K-562 (setting [3]) it was over 500 nM.

With `C=CC(=O)Nc1cccc(Nc2nc(N3CCC[C@H](NC(=O)c4ccc(C5CC5)cc4)[C@@H]3C)cnc2C(N)=O)c1` [Compound C-1, reference compound], the IC50 in the assay on MV-4-11 (setting [1]) is over 500 nM; with MV-4-11 (MV4-11 cells, read-out: IC50 in MV4-11 cells) it was over 100 nM; in the assay with MOLM-13 (setting [2]), over 500 nM; with MOLM-13 (read-out: IC50 in MOLM-13 cells) it was over 100 nM; at FLT3-ITD, over 1 nM; against WT FLT3, over 1 nM. The IC50 in the assay with K-562 (setting [3]) was over 500 nM; in the assay with K-562 (K562 cells, read-out: IC50 in K562 cells) it was over 100 nM. Moreover, the “Ymax in MV4-11 cells” value with MV-4-11 (MV4-11 cells) was determined as 9.7%. The “Ymax in MOLM-13 cells” value with MOLM-13 was found to be 0%. Besides, the “Ymax in K562 cells” value in the assay on K-562 (K562 cells) is 0%.

For the molecule `C=CC(=O)N(C)[C@@H](C)C(=O)NCCc1cccc(Nc2nc(N(C)C)c(CC)nc2C(N)=O)c1` [Compound 213, (S)-5-(dimethylamino)-6-ethyl-3-((3-(2-(2-(N-methylacrylamido)propanamido)ethyl)phenyl)amino)pyrazine-2-carboxamide], the IC50 in the assay with MV-4-11 (setting [1]) is under 1 nM; with MOLM-13 (setting [2]), 1 to 10 nM; against FLT3-ITD, 0.101 to 0.2 nM; at WT FLT3 it was 0.501 to 1 nM; with K-562 (setting [3]), over 500 nM.

On to `CCc1nc(C(N)=O)c(Nc2cccc(CCNC(=O)[C@H](C)N(C)C(=O)/C=C/CN3CCC3)c2)nc1N(C)C` [Compound 156, (S,E)-3-((3-(2-(2-(4-(azetidin-1-yl)-N-methylbut-2-enamido)propanamido)ethyl)phenyl)amino)-5-(dimethylamino)-6-ethylpyrazine-2-carboxamide], for which the IC50 was under 1 nM with MV-4-11 (setting [1]); under 1 nM with MOLM-13 (setting [2]); 0.201 to 0.5 nM against FLT3-ITD; 0.201 to 0.5 nM against WT FLT3; over 500 nM in the assay with K-562 (setting [3]).

Consider `CCc1nc(C(N)=O)c(Nc2cccc([C@@H](C)CNC(=O)CN(C)C(=O)/C=C/CN3CCC3)c2)nc1C(C)C` [Compound 509, (R,E)-3-((3-(1-(2-(4-(azetidin-1-yl)-N-methylbut-2-enamido)acetamido)propan-2-yl)phenyl)amino)-6-ethyl-5-isopropylpyrazine-2-carboxamide], for which the IC50 in the assay with MV-4-11 (setting [1]) is 1 to 10 nM; in the assay on MOLM-13 (setting [2]), under 1 nM; against FLT3-ITD it was 0.501 to 1 nM; against WT FLT3, 0.201 to 0.5 nM; in the assay on K-562 (setting [3]) it was over 500 nM.

Take `CCc1nc(C(N)=O)c(Nc2cccc(CCNC(=O)CN(C)C(=O)/C=C/CN3CCC3)c2)nc1CC(C)C` [Compound 601, (E)-3-((3-(2-(2-(4-(azetidin-1-yl)-N-methylbut-2-enamido)acetamido)ethyl)phenyl)amino)-6-ethyl-5-isobutylpyrazine-2-carboxamide]: the IC50 in the assay with MV-4-11 (setting [1]) was under 1 nM; in the assay with MOLM-13 (setting [2]) it was 1 to 10 nM; against FLT3-ITD, 0.501 to 1 nM; against WT FLT3, over 1 nM; with K-562 (setting [3]), over 500 nM.

Consider `CCc1nc(C(N)=O)c(Nc2cccc(CCNC(=O)[C@H](C)NC(=O)/C=C/CN(C)C)c2)nc1N(C)C(C)C` [Compound 502, (S,E)-3-((3-(2-(2-(4-(dimethylamino)but-2-enamido)propanamido)ethyl)phenyl)amino)-6-ethyl-5-(isopropyl(methyl)amino) pyrazine-2-carboxamide], for which the IC50 in the assay on MV-4-11 (setting [1]) was under 1 nM; with MOLM-13 (setting [2]), under 1 nM; on FLT3-ITD it was 0.201 to 0.5 nM; against WT FLT3 it was 0.101 to 0.2 nM; in the assay with K-562 (setting [3]), over 500 nM.

With `CCc1nc(C(N)=O)c(Nc2cc(CCNC(=O)[C@H](C)N(C)C(=O)/C=C/CN(C)C)cc(OC)c2)nc1N(C)C` [Compound 143], the IC50 in the assay with MV-4-11 (setting [1]) is under 1 nM; in the assay with MOLM-13 (setting [2]) it was under 1 nM; on FLT3-ITD, 0.101 to 0.2 nM; on WT FLT3, 0.101 to 0.2 nM; with K-562 (setting [3]), over 500 nM.

Take `CCc1nc(C(N)=O)c(Nc2cccc(CCNC(=O)[C@H](C)N(C)C(=O)/C=C/CN(C)C)c2)nc1N(C)CC` [Compound 221, (S,E)-3-((3-(2-(2-(4-(dimethylamino)-N-methylbut-2-enamido)propanamido)ethyl)phenyl)amino)-6-ethyl-5-(ethyl(methyl)amino)pyrazine-2-carboxamide]: the IC50 in the assay with MV-4-11 (setting [1]) is under 1 nM; with MOLM-13 (setting [2]) it was under 1 nM; on FLT3-ITD, 0.101 to 0.2 nM; against WT FLT3, 0.501 to 1 nM; in the assay on K-562 (setting [3]), over 500 nM.

As for `CCc1nc(C(N)=O)c(Nc2cccc([C@@H](C)CNC(=O)CN(C)C(=O)/C=C/CN3CCC3)c2)nc1CC(C)C` [Compound 517, (R, E)-3-((3-(1-(2-(4-(azetidin-1-yl)-N-methylbut-2-enamido)acetamido)propan-2-yl)phenyl)amino)-6-ethyl-5-isobutylpyrazine-2-carboxamide], the IC50 in the assay with MV-4-11 (setting [1]) is 1 to 10 nM; in the assay with MOLM-13 (setting [2]), 1 to 10 nM; at FLT3-ITD it was 0.501 to 1 nM; at WT FLT3, 0.501 to 1 nM; with K-562 (setting [3]) it was over 500 nM.

`CCc1nc(C(N)=O)c(Nc2cccc([C@@H](C)CNC(=O)CN(C)C(=O)/C=C/CN(C)C)c2)nc1C` [Compound 321, (R,E)-3-((3-(1-(2-(4-(dimethylamino)-N-methylbut-2-enamido)acetamido)propan-2-yl)phenyl)amino)-6-ethyl-5-methylpyrazine-2-carboxamide]: the IC50 in the assay with MV-4-11 (setting [1]) was 1 to 10 nM; with MOLM-13 (setting [2]), 1 to 10 nM; against FLT3-ITD, over 1 nM; on WT FLT3, 0.501 to 1 nM; with K-562 (setting [3]), over 500 nM.
